Measurements taken from patent publication US7994311B2, “Fluorescent chemosensors for metals based on dipyrrins” (priority 2006, dated 2011).

Assays:
[1] = Fluorescence quantum yield of dipyrrins, free and with Zn^2+; conditions: even with Cd^2+; Table 1, FIG. 2
Description: The conjugated (2) comprises a fluorophore with the […] moiety behaving as an ionphore. Benzaldehyde was used to form (2) because the properties shown by this type of sensing molecule with an benzene ring are representative of the general behavior of the family of compounds. In spite of the low fluorescence quantum yields of benzene, substituting benzene (ΦF=0.05±0.02) with a more intrinsically luminescent unit can make a great improvement in ΦF. An examples of another aromatic entity used instead of benzene is anthracene (ΦF0.27±0.03). When a […] attached to the benzene ring, the fluorescence quantum yield (ΦF) of (2) was very low and was determined to be 0.0011 due to the photo-induced electron transfer (PET), which is the intra-molecular quenching mechanism of an enamine group and an imine group in conjugate. When Zn^2+ bound with a […] moiety, PET was hindered and fluorescence emission intensity was recovered. […] Zn^2+, the fluorescence quantum yield was determined to be 0.07. […] (2), (3) and (4). The excitation wavelengths were 432, 475, 450 nm. The emission wavelengths were 496, 612, 497 and 599 nm for (2), (3) and (4). The ratio of fluorescence quantum yield [fluorescence quantum yield of metal ion/(2), (3) or (4) complex over fluorescence quantum yield of free ligand (10 μM)] was measured in acetonitrile.

[2] = Zn^2+ binding / complex formation (qualitative)
[3] = Fluorescence response of (4) to Zn^2+ concentration; type: binding; conditions: fluorescence emission
Description: We believe that the steric strain in conformations that would allow the orbital alignment needed for conjugation may be detrimental to high quantum yield. 1-pyrenyldipyrrin ((4), PYDPY1), is more fluorescent and sterically less demanding than (3). […] Indeed, as a Zn^2+ sensor, (4) is unsurpassed in its effective concentration range with Zn^2+, thus providing a rarely found degree of sensitivity.
FIG. 5 is a graph of fluorescence response and Zn^2+ concentration and (4).

Row | Compound | selectivity for Zn^2+ in comparison to other common metal ions [1] | binding of Zn^2+ (in words) [2] | Kd [3] [µM]
1 | C1=CC(=C(c2ccccc2)c2ccc[nH]2)N=C1 [Compound (2), 5-phenyl-4,6-dipyrrin] | Excellent selectivity | found to bind Zn^2+ | 
2 | C1=CC(=C(c2ccc[nH]2)c2ccc3ccc4cccc5ccc2c3c45)N=C1 [(4), 1-pyrenyldipyrrin] |  |  | 20
